# Test system: HCV peptide-specific T cells (MHC class I-restricted CD8+ / MHC class II-restricted CD4+)
# Assay: IFN-γ ELIspot assay of spleen cells after vaccination of mice
# Assay type: in vivo, HLA-A*0201 transgenic mice (HHD.2)
# Experimental: Vaccine: clinical batch PD03127 (lot K) Injection volume of 100 μl per mouse contains:
# As adjuvant: Poly-L-Arginine with an average degree of polymerisation of 40 to 50 arginine residues (determined by multiple angle laser light scattering (MALLS)); lot 113K7277; Sigma Aldrich Inc.; 400 μg • Additional adjuvant: Aldara™ containing 5% Imiquimod, an immunostimulatory agent acting via TLR7; 3M Health Care Ltd.; dose: approx 20 mg/mouse • Formulation buffer: 5 mM phosphate/270 mM sorbitol Experimental set-up 10 mice per group • 1. subcutaneous injection into the flank • 2. intradermal injection into the back • 3. intradermal injection into the back followed by immediate application of Aldara™ cream at injection area
# On days 0, 14 and 28 mice were injected with a total amount of 100 μl/vaccine/mouse containing the above listed compounds at different sites as indicated. Spleens were harvested for each experimental group on day 35 and enriched for CD4^+ T cells by magnetic separation (MACS). CD4^+ T cell-depleted spleen cells were used to determine the CD8^+ T cell response. MHC class II restricted (CD4^+ T cells) as well as MHC class I restricted T cell responses (CD8^+ T cells) against each single HCV-derived peptide were determined using an IFN-7 ELIspot assay. In general, restimulation with an irrelevant peptide induced no IFN-7 production.
# Vaccine: Injection volume of 100 μl per mouse contains: As antigens: Ipep 83 200 μg, Ipep 84 200 μg, Ipep 87 200 μg, Ipep 89 200 μg, Ipep 1426 200 μg As adjuvant: Poly-L-Arginine with an average degree of polymerization of 40 to 50 arginine residues (determined by MALLS); lot 113K7277; Sigma Aldrich Inc.; 400 μg • Additional adjuvant: Aldara™ containing 5% Imiquimod, an immunostimulatory agent acting via TLR7; 3M Health Care Ltd.; dose: approx 20 mg/mouse • Formulation buffer: 5 mM phosphate/270 mM sorbitol Experimental set-up 30 mice per group (10 per time point of analysis) • 1. intradermal injection into the back • 2. intradermal injection into the back followed by immediate application of Aldara™ cream at injection area […]
# [1] = Example 1: subcutaneous injection into the flank, days 0, 14 and 28, spleens day 35
sequence,measurement,setting,value
GYKVLVLNPSVAAT [Ipep 84],MHC class I-restricted CD8+ T cell response (IFN-γ ELIspot),[1],could be detected
same,MHC class II-restricted CD4+ T cell response (IFN-γ ELIspot),[1],could be detected
same,IFN-γ production by MHC class I-restricted CD8+ T cells,"Example 2: two intradermal injections, day 21",induced in comparable strength

# — patent publication US20090186047A1, “HCV Vaccinations” (INTERCELL AG, priority 2006, published 2009)
